Data as given in ChEMBL document CHEMBL1124431, “Preparation and antitumor activity of additional mitomycin A analogues” (J Med Chem, 1989).

Columns and labels:
[1] = Partition coefficient (logP); assay type: physicochemical; conditions: octanol/water
Mus musculus = species: Mus musculus; assay: log(1/C) was estimated in mice; assay type: organism-based; conditions: in vivo
P388 [2] = assay: Minimum effective dose was determined on P388 leukemia cells in mice; assay type: functional, Mus musculus; conditions: for minimal effective dose: Mus musculus, P388, read-out: MED
P388 [3] = assay: Maximal effect of the given optimal dose of 3.2 mg/kg against P388 leukemia cells in mice; assay type: functional, Mus musculus
P388 [4] = assay: Maximal effect of the given optimal dose of 0.8 mg/kg against P388 leukemia cells in mice; assay type: functional, Mus musculus
P388 [5] = assay: Maximal effect of the given optimal dose of 1.6 mg/kg against P388 leukemia cells in mice; assay type: functional, Mus musculus
P388 [6] = assay: Maximal effect of the given optimal dose of 0.4 mg/kg against P388 leukemia cells in mice; assay type: functional, Mus musculus
P388 [7] = assay: Maximal effect of the given optimal dose of 12.8 mg/kg against P388 leukemia cells in mice; assay type: functional, Mus musculus
P388 [8] = assay: Maximal effect of the given optimal dose of 6.4 mg/kg against P388 leukemia cells in mice; assay type: functional, Mus musculus
P388 [9] = assay: Maximal effect of the given optimal dose of 0.2 mg/kg against P388 leukemia cells in mice; assay type: functional, Mus musculus
B16 [10] = assay: Minimum effective dose was determined on B16 melanoma cells in mice; assay type: functional; conditions: Mus musculus, read-out: MED
B16 [11] = assay: Maximal effect of the given optimal dose of 0.8 mg/kg against B16 melanoma cells in mice; assay type: functional, Mus musculus
B16 [12] = assay: Maximal effect of the given optimal dose of 1.6 mg/kg against B16 melanoma in mice; assay type: functional, Mus musculus
B16 [13] = assay: Maximal effect of the given optimal dose of 0.4 mg/kg against B16 melanoma in mice; assay type: functional, Mus musculus
B16 [14] = assay: Maximal effect of the given optimal dose of 0.3 mg/kg against B16 melanoma in mice; assay type: functional, Mus musculus

| Structure (SMILES) | logP [1] | Log 1/C (Mus musculus) | MED (P388 [2]) | minimal effective dose (P388 [2]) | T/C (P388 [3]) | also measured |
| --- | --- | --- | --- | --- | --- | --- |
| CO[C@@]12C(COC(N)=O)C3=C(C(=O)C(C)=C(OCc4cccs4)C3=O)N1CC1NC12 (some centres not stated) | 2.07 | 5.15 | 7.13e-06 M/kg | 3.2 mg/kg | 159% |  |
| COCC(C)OC1=C(C)C(=O)C2=C(C1=O)C(COC(N)=O)[C@@]1(OC)C3NC3CN21 (some centres not stated) | 0.79 | 6.21 | 4.81e-07 M/kg | 0.2 mg/kg |  | T/C (P388 [4]): 206% |
| CCOCCOC1=C(C)C(=O)C2=C(C1=O)C(COC(N)=O)[C@@]1(OC)C3NC3CN21 (some centres not stated) | 0.79 | 7.33 | 4.65e-07 M/kg | 0.2 mg/kg |  | T/C (P388 [5]): 133% |
| CO[C@@]12C(COC(N)=O)C3=C(C(=O)C(C)=C(OCC4OCCO4)C3=O)N1CC1NC12 (some centres not stated) | -0.18 | 7.23 | 5.88e-07 M/kg | < 0.05 mg/kg |  | T/C (P388 [6]): 267% |
| CO[C@@]12C(COC(N)=O)C3=C(C(=O)C(C)=C(OCCN4CCCCC4)C3=O)N1CC1NC12 (some centres not stated) | 1.96 | 6.06 | 8.71e-07 M/kg | 0.4 mg/kg |  | T/C (P388 [7]): 191% |
| CO[C@@]12C(COC(N)=O)C3=C(C(=O)C(C)=C(OCCSC)C3=O)N1CC1NC12 (some centres not stated) | 1.37 | 6.02 | 9.57e-07 M/kg | 0.4 mg/kg |  | T/C (P388 [5]): 165% |
| CO[C@@]12C(COC(N)=O)C3=C(C(=O)C(C)=C(OCCCN4CCN(C)CC4)C3=O)N1CC1NC12 (some centres not stated) | 1.16 | 4.9 | 1.265e-05 M/kg | 6.4 mg/kg |  | T/C (P388 [7]): >167% |
| CO[C@@]12C(COC(N)=O)C3=C(C(=O)C(C)=C(OCCN4CCSCC4)C3=O)N1CC1NC12 (some centres not stated) | 2.07 | 6.67 | 2.06e-07 M/kg | 0.1 mg/kg |  | T/C (P388 [8]): >172% |
| CCN1CCCC1CCOC1=C(C)C(=O)C2=C(C1=O)C(COC(N)=O)[C@@]1(OC)C3NC3CN21 (some centres not stated) | 1.96 | 6.96 | 1.09e-07 M/kg | < 0.1 mg/kg |  | T/C (P388 [7]): 211% |
| CO[C@@]12C(COC(N)=O)C3=C(C(=O)C(C)=C(OCCSCc4ccccc4)C3=O)N1CC1NC12 (some centres not stated) | 3.58 | 6.37 | 4.25e-07 M/kg | 0.2 mg/kg |  | T/C (P388 [8]): 156% |
| CO[C@@]12C(COC(N)=O)C3=C(C(=O)C(C)=C(OC/C=C/CO)C3=O)N1CC1NC12 (some centres not stated) | 0.46 | 6.21 | 4.83e-07 M/kg | 0.2 mg/kg | 150% |  |
| CO[C@@]12C(COC(N)=O)C3=C(C(=O)C(C)=C(OCCCN(CCO)CCO)C3=O)N1CC1NC12 (some centres not stated) | -0.28 |  |  |  |  | T/C (P388 [9]): 106% |
| CO[C@@]12C(COC(N)=O)C3=C(C(=O)C(C)=C(OC4CCN(C)CC4)C3=O)N1CC1NC12 (some centres not stated) | 1.46 | 5.15 | 7.1e-06 M/kg | 3.2 mg/kg | 155% |  |
| CO[C@@]12C(COC(N)=O)C3=C(C(=O)C(C)=C(OCc4ccccn4)C3=O)N1CC1NC12 (some centres not stated) | 0.91 | 6.04 | 9.2e-07 M/kg | 0.4 mg/kg |  | T/C (P388 [4]): 164% |
| CCSCC(O)COC1=C(C)C(=O)C2=C(C1=O)C(COC(N)=O)[C@@]1(OC)C3NC3CN21 (some centres not stated) | 1.25 | 6.37 | 4.33e-07 M/kg | 0.2 mg/kg | >322% |  |
| CO[C@@]12C(COC(N)=O)C3=C(C(=O)C(C)=C(OCCSCCSCCO)C3=O)N1CC1NC12 (some centres not stated) | 1.86 | 5.84 | 1.603e-06 M/kg | 0.8 mg/kg |  | T/C (P388 [4]): 140% |
| CO[C@@]12C(COC(N)=O)C3=C(C(=O)C(C)=C(OCCCSCCCO)C3=O)N1CC1NC12 (some centres not stated) | 3.49 | 6.98 | 1.02e-07 M/kg | < 0.1 mg/kg |  | T/C (P388 [8]): 153% |
| CO[C@@]12C(COC(N)=O)C3=C(C(=O)C(C)=C(OC4CC4)C3=O)N1CC1NC12 (some centres not stated) | 1.17 | 6.89 | 1.3e-07 M/kg | 0.05 mg/kg | 172% | minimal effective dose (B16 [10]): 0.8 mg/kg; T/C (B16 [11]): 138% |
| CO[C@@]12C(COC(N)=O)C3=C(C(=O)C(C)=C(OCC4COCO4)C3=O)N1CC1NC12 (some centres not stated) | 0.31 | 6.32 | 4.75e-07 M/kg | 0.2 mg/kg |  | T/C (P388 [6]): 140% |
| CO[C@@]12C(COC(N)=O)C3=C(C(=O)C(C)=C(OCCNC(C)=O)C3=O)N1CC1NC12 (some centres not stated) | -0.21 | 6.03 | 9.32e-07 M/kg | 0.4 mg/kg |  | T/C (P388 [7]): 150% |
| CO[C@@]12C(COC(N)=O)C3=C(C(=O)C(C)=C(OC4CCOCC4)C3=O)N1CC1NC12 (some centres not stated) | 1.29 | 6.93 | 1.17e-07 M/kg | < 0.1 mg/kg | 212% | T/C (B16 [12]): 135%; minimal effective dose (B16 [10]): 1.6 mg/kg |
| CCO[Si](CCCOC1=C(C)C(=O)C2=C(C1=O)C(COC(N)=O)[C@@]1(OC)C3NC3CN21)(OCC)OCC (some centres not stated) |  | 6.44 | 3.59e-07 M/kg | 0.2 mg/kg |  | T/C (P388 [7]): 167% |
| CO[C@@]12C(COC(N)=O)C3=C(C(=O)C(C)=C(OCCC4OCCCO4)C3=O)N1CC1NC12 (some centres not stated) | 0.82 |  |  |  |  | minimal effective dose (B16 [10]): < 0.3 mg/kg; T/C (B16 [13]): 154%; T/C (P388 [9]): 117% |
| CCOC(=O)CCCOC1=C(C)C(=O)C2=C(C1=O)C(COC(N)=O)[C@@]1(OC)C3NC3CN21 (some centres not stated) | 1.49 | 4.85 | 1.41e-05 M/kg | 6.4 mg/kg |  | T/C (P388 [7]): 171% |
| CO[C@@]12C(COC(N)=O)C3=C(C(=O)C(C)=C(OCCC4CCCN4C)C3=O)N1CC1NC12 (some centres not stated) | 1.46 | 5.21 | 7.033e-06 M/kg | 3.2 mg/kg |  | T/C (P388 [7]): >156% |
| CO[C@@]12C(COC(N)=O)C3=C(C(=O)C(C)=C(OCCOCCCl)C3=O)N1CC1NC12 (some centres not stated) | 1.18 | 7.21 | 6.2e-08 M/kg | < 0.05 mg/kg | 183% | minimal effective dose (B16 [10]): 0.4 mg/kg; T/C (B16 [11]): 169% |
| CO[C@@]12C(COC(N)=O)C3=C(C(=O)C(C)=C(OCCSc4ccccc4)C3=O)N1CC1NC12 (some centres not stated) | 3.12 | 5.17 | 6.73e-06 M/kg | 3.2 mg/kg |  | T/C (P388 [7]): 130% |
| CO[C@@]12C(COC(N)=O)C3=C(C(=O)C(C)=C(OCCOc4ccccc4)C3=O)N1CC1NC12 (some centres not stated) | 2.39 | 5.45 | 3.516e-06 M/kg | 1.6 mg/kg | 130% |  |
| CO[C@@]12C(COC(N)=O)C3=C(C(=O)C(C)=C(OCC4CC4)C3=O)N1CC1NC12 (some centres not stated) | 1.67 | 5.97 | 1.028e-06 M/kg | 0.4 mg/kg |  | T/C (P388 [5]): 144% |
| COC1=C(C)C(=O)C2=C(C1=O)[C@@H](COC(N)=O)[C@@]1(OC)[C@H]3N[C@H]3CN21 [MITOMYCIN A] |  | 6.84 | 1.43e-07 M/kg | 0.05 mg/kg | 180% | minimal effective dose (B16 [10]): 0.05 mg/kg; T/C (B16 [14]): 177% |
